Consider one substance from patent US20230071672A1, “PRESERVING FLUOROPHORE FUNCTION” (Lions VisionGift, priority 2021, published 2023).

For data set [1] the following is noted: stored over night at 4° C., or frozen and thawed; cited from earlier work.
The conditions of data set [2]: in water and alcohol; cited from earlier work.
The test system of data set [3] is corneas. Description: Staining of corneas for 15 minutes and fluorescence microscopy imaging after storage of the stain. The format is cell-based. The protocol: Calcein AM (2.5 μg/mL) was prepared with 1.7% sodium hyaluronic acid in a balanced salt solution. Three corneas were stained for 15 minutes and imaged under the same conditions. The cornea shown in FIG. 1A was stained with the mixture immediately after preparation. The cornea shown in FIG. 1B was stained with the mixture after the mixture had been stored frozen for 5 days. The cornea shown in FIG. 1C was stained with the mixture after the mixture had been stored frozen for 3 months.
Calcein-AM (2.5 μg/mL) was prepared according to manufacturer's recommendations. All corneas were stained for 15 minutes and imaged under the same conditions.

With calcein AM, the functionality after storage result in data set [1] is “lose functionality”. For the same substance, the solubility entry in data set [2] is listed as “only slightly soluble”. For the same substance, the “fluorescence signal with storage time” value in data set [3] (stored under 4° C. refrigeration, protected from light, overnight, five days, one month, three months, FIGS. 2B-2E) was “loses intensity with the storage time length”. Besides, the “fluorescence signal after storage” value in data set [3] (three months' storage under 4° C. refrigeration, FIG. 2E) was “completely lost”.
